In patent US20240316020A1, “Novel Pyridine Compounds” (ICAGEN, LLC, priority 2021, published 2024):

Legend:
human Kv7.2 = human Kv7.2 (Homo sapiens (Human), UniProt O43526); assay: SyncroPatch 384 electrophysiology, CHO cells stably expressing human Kv7.2; type: cell-based
Protocol: (§1) The potency of Kv7 potentiators was determined using the SyncroPatch 384 (Nanion) high throughput electrophysiology platform.
(§2) CHO cells stably expressing either human Kv7.2, Kv7.4 or Kv7.5/7.3 under a constitutive CMV promoter were used for these studies. Cells were maintained in F12 Hams+1 mM L-glutamine (Hyclone) supplemented with 10% FBS (Sigma), 0.3×NEAA (Non-essential Gamino-acids) and 400 ug/ml G418 at 37° C. in 5% CO2. Cells were cultured in T-225 flasks (Nunc) for 2-3 days to reach 85-95% confluence prior to electrophysiological recording.
(§3) Earle's balanced salt solution (in mM): 135 NaCl, 5.4 KCl, 5 Glucose, 2 CaCl2, 1 MgCl2, 5 HEPES, pH 7.4. Seal enhancer solution (in mM): 90 NaCl, 3 KCl, 35 CaCl2, 10 MgCl2, 10 HEPES, pH 7.4. Extracellular recording solution (in mM): 71 NaCl, 70 NMDG, 13 KCl, 5 Glucose, 2 CaCl2, 1 MgCl2, 10 HEPES, pH 7.4. Intracellular recording solution (in mM): 130 KF, 20 KCl, 4 EGTA, 10 HEPES, 2 EDTA, 0.01 Escin, pH 7.2.
(§4) Cells were harvested for electrophysiological recording upon reaching appropriate confluence. Cells were first washed in DPBS (Hyclone, Cat #SH30028.03) and then 2 ml of Accutase (MP Biomedicals #1000449) was added at 28° C. until ˜90% of cells were suspended. F12 HAM's media+1 mM L-glutamine (Hyclone, SH30026.02) was then added to the flask to dilute the accutase. Cells were then triturated until a single cell suspension was achieved, a cell count was performed, and cells were centrifuged for 2 min. at 1,000 rpm. Media was then aspirated, and cells were resuspended in Earle's balanced salt solution to a concentration of 0.75×10^6 cells/ml and allowed to recover for 25 min at 10° C.
(§5) At the beginning of each assay, 20 μl of cell suspension was dispensed into each well of a multi-hole 384-well SyncroPatch chip by the onboard pipettor. Cell sealing was initiated, and seal enhancer solution was added to facilitate seal formation. Upon completion of sealing, cells were washed 3 times with extracellular recording solution and the assay voltage protocol was started. Human Kv7.2, Kv7.4 or Kv7.5/7.3 channels were evaluated using a voltage protocol in which cells were voltage-clamped at a holding potential of −60 mV. Potassium currents were continuously activated with a series of three voltage steps to −30 mV for 3 seconds, 40 mV for 1 second and −90 mV for 4 seconds with 12 seconds between successive voltage sweeps. Potassium currents were measured from the −90 mV repolarizing step. Baseline current was assessed for 3.5 minutes prior to the addition of 5.6 μM zinc pyrithione (1 μM for Kv7.4). Kv7.2, Kv7.4 or Kv7.5/7.3 current in the presence of zinc pyrithione was acquired over five minutes to allow channels to reach steady state activity prior to addition of test agents. Channel activity was monitored for three minutes preceding the addition of 30 μM ML-213 (3 minutes) to achieve maximum activation.
(§6) Data were collected on the SyncroPatch platform using PatchControl software (Nanion) and processed and analyzed using DataControl Software (Nanion). Percent activation was calculated from potassium current as follows: The average current for the 5 sweeps in the presence of zinc pyrithione immediately preceding test agent addition was taken as the ‘control’ data. Likewise, the average potassium current in the presence of test agents 5 sweeps immediately preceding addition of 30 μM ML-213 was determined for ‘drug’ data. The average potassium current 5 sweeps immediately prior to addition of 150 mM TEA+10 μM XE-991 was determined for ‘max activation’ data while average currents from 5 sweeps immediately following addition of TEA was determined for ‘max inhibition’ data. Percent activation for each of the 384-wells of a sealchip was calculated as ((‘drug’−‘max inhibition’)/(‘max activation’−‘max inhibition’))*100 with Pipeline Pilot (Accelrys). […]

human Kv7.5/7.3 = human Kv7.5/7.3 (Homo sapiens (Human), UniProt O43525+Q9NR82); assay: SyncroPatch 384 electrophysiology, CHO cells stably expressing human Kv7.5/7.3; type: cell-based; details: Table A; for Kv7.5/7.3/Kv7.2 selectivity ratio: Kv7.5/7.3 EC50 over Kv7.2 EC50
Chain of human Kv7.5/7.3 (Q9NR82 whole entry): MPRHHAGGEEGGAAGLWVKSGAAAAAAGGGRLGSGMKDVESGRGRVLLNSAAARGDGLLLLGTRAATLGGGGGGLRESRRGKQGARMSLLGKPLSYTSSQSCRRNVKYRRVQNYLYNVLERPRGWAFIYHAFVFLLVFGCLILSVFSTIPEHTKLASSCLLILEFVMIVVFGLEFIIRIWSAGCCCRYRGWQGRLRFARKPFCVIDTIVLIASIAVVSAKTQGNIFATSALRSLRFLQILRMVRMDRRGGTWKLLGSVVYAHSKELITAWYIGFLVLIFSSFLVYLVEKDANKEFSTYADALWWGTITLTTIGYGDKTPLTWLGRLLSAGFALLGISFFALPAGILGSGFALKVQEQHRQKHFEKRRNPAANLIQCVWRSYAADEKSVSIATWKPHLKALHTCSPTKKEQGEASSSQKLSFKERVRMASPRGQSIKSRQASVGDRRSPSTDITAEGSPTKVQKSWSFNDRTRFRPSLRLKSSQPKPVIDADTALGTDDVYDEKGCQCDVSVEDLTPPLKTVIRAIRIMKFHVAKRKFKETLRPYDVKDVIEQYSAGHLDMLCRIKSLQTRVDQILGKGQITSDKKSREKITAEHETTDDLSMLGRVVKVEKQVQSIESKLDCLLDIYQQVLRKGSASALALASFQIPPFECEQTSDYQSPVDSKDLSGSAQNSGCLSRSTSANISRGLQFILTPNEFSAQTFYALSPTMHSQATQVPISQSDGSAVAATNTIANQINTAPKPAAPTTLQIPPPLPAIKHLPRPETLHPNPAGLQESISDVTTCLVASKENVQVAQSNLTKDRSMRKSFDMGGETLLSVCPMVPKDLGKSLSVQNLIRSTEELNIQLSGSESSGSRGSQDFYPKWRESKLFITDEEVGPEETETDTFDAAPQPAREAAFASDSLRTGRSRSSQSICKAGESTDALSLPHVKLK
Chain of human Kv7.5/7.3 (O43525 whole entry): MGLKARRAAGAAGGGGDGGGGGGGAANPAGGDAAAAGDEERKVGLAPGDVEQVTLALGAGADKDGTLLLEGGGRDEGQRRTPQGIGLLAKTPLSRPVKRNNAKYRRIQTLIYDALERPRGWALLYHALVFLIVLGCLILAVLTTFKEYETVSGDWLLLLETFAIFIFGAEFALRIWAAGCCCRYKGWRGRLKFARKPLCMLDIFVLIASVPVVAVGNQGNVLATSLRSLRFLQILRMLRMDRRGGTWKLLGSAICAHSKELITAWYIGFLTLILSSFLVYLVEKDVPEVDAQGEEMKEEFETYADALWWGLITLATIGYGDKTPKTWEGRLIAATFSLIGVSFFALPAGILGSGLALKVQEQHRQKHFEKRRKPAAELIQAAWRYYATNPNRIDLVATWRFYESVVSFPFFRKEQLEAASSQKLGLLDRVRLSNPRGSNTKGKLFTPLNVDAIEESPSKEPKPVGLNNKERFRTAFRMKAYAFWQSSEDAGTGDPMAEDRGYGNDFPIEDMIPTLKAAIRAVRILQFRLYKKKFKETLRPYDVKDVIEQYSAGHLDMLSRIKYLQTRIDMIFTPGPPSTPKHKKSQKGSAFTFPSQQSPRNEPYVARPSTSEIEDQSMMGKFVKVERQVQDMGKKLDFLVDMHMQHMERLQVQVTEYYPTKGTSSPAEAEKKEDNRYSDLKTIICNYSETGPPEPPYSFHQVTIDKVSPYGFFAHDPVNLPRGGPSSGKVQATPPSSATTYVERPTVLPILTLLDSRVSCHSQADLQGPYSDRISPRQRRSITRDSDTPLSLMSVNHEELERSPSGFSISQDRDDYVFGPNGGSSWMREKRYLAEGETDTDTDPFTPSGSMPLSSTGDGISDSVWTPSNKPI
Protocol: as §1, §2, §3, §4, §5, §6

[1] = Table 1, CHO cells, potassium current at -90 mV step, in presence of zinc pyrithione

Chain of human Kv7.2 (O43526 whole entry): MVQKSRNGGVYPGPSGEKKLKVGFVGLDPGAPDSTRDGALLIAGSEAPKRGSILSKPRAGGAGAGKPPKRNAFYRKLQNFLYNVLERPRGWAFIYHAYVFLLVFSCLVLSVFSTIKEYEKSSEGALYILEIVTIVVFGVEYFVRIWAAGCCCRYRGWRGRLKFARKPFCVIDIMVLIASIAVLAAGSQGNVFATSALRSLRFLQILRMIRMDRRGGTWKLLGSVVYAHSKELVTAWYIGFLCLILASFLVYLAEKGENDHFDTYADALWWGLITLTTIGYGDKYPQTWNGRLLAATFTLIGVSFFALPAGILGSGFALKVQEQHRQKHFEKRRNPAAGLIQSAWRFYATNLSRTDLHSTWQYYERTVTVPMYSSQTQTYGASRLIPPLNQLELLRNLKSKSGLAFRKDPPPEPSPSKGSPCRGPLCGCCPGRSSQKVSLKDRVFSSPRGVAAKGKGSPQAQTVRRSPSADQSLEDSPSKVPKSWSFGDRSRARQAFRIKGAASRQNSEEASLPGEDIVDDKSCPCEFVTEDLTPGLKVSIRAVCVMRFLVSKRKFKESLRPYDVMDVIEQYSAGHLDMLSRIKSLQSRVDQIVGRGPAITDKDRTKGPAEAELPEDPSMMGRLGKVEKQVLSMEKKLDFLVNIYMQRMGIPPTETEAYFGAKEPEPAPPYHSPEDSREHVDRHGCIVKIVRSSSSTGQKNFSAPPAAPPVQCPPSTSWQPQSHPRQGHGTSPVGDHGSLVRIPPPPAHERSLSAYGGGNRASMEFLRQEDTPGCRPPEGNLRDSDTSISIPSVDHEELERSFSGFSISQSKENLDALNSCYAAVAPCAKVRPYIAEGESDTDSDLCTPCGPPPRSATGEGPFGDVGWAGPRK

Structure (SMILES)	EC50 (human Kv7.2; [1]) [nM]	EC50 (human Kv7.2; Table A) [nM]	EC50 (human Kv7.5/7.3) [nM]	Kv7.5/7.3/Kv7.2 selectivity ratio (human Kv7.5/7.3)
CC(F)COc1cc(CNC(=O)NC2CC3(CCC3)C2)ccn1 (centres unmarked) [Example 6, 1-[[2-(2-fluoropropoxy)pyridin-4-yl]methyl]-3-spiro[3.3]heptan-2-ylurea]	60			
O=C(NC1CC2(CCC2)C1)NC(CO)c1ccnc(OCC(F)(F)F)c1 (centres unmarked) [Example 13, 1-[2-hydroxy-1-[2-(2,2,2-trifluoroethoxy)pyridin-4-yl]ethyl]-3-spiro[3.3]heptan-2-ylurea]	70			
O=C(NCc1ccnc(OCC2CC2)c1)NC1CC2(CCC2)C1 [Example 7, 1-[[2-(cyclopropylmethoxy)pyridin-4-yl]methyl]-3-spiro[3.3]heptan-2-ylurea]	50			
O=C(NCc1ccnc(OC(F)F)c1)NC1CCC2(C1)CC2(F)F (centres unmarked) [Example 19, 1-[[2-(difluoromethoxy)pyridin-4-yl]methyl]-3-(2,2-difluorospiro[2.4]heptan-6-yl)urea]	350	350	> 30000	>86
O=C(NCc1ccnc(OC(F)F)c1)NC1CC2(CCC2)C1 [Example 4, 1-[[2-(difluoromethoxy)pyridin-4-yl]methyl]-3-spiro[3.3]heptan-2-ylurea]	20			
O=C(NCc1ccnc(OC(F)F)c1)NC1CCC2(CCC2)OC1 (centres unmarked) [Example 32, 1-[[2-(difluoromethoxy)pyridin-4-yl]methyl]-3-(5-oxaspiro[3.5]nonan-7-yl)urea]	550			
O=C(NCc1ccnc(OC(F)F)c1)N[C@@H]1CC2(CCC2)[C@@H]1O [Example 28, 1-[[2-(difluoromethoxy)pyridin-4-yl]methyl]-3-[(2R,3S)-3-hydroxyspiro[3.3]heptan-2-yl]urea]	500	500	> 30000	>60
O=C(NCc1ccnc(-n2cccn2)c1)NC1CCOC2(CCCC2)C1 (centres unmarked) [Example 2, 1-(6-oxaspiro[4.5]decan-9-yl)-3-[(2-pyrazol-1-ylpyridin-4-yl)methyl]urea]	8490			
CC(F)(F)COc1cc(CNC(=O)NC2CC3(CCC3)C2)ccn1 [Example 5, 1-[[2-(2,2-difluoropropoxy)pyridin-4-yl]methyl]-3-spiro[3.3]heptan-2-ylurea]	20			
O=C(NCc1ccnc(OC(F)F)c1)NC1COC2(CCCC2)C1 (centres unmarked) [Example 3, 1-[[2-(difluoromethoxy)pyridin-4-yl]methyl]-3-(1-oxaspiro[4.4]nonan-3-yl)urea]	500			

Continued by falling EC50 (human Kv7.2; [1]), values first:

EC50 (human Kv7.2; [1]) [nM]	EC50 (human Kv7.2; Table A) [nM]	EC50 (human Kv7.5/7.3) [nM]	Kv7.5/7.3/Kv7.2 selectivity ratio (human Kv7.5/7.3)	Structure (SMILES)
8430				O=C(NCc1ccnc(OC(F)F)c1)NC1COC12CCCCC2 (centres unmarked) [Example 20, 1-[[2-(difluoromethoxy)pyridin-4-yl]methyl]-3-(1-oxaspiro[3.5]nonan-3-yl)urea]
1940	1940	> 30000	>15	O=C(NCc1ccnc(OC(F)F)c1)NC1CC12CCC2 (centres unmarked) [Example 23, 1-[[2-(difluoromethoxy)pyridin-4-yl]methyl]-3-spiro[2.3]hexan-2-ylurea]
450				O=C(NCc1ccnc(OC(F)F)c1)NC1COC2(CCCCC2)C1 (centres unmarked) [Example 30, 1-[[2-(difluoromethoxy)pyridin-4-yl]methyl]-3-(1-oxaspiro[4.5]decan-3-yl)urea]
410				O=C(NCc1ccnc(OC(F)F)c1)NC1(CO)CC2(CCC2)C1 [Example 18, 1-[[2-(difluoromethoxy)pyridin-4-yl]methyl]-3-[2-(hydroxymethyl)spiro[3.3]heptan-2-yl]urea]
190				O=C(NCc1ccnc(C(F)(F)F)c1)NC1CC2(CCC2)C1 [Example 10]
100				O=C(NCc1ccnc(OCC(F)CF)c1)NC1CC2(CCC2)C1 (centres unmarked) [Example 29, 1-[[2-(2,3-difluoropropoxy)pyridin-4-yl]methyl]-3-spiro[3.3]heptan-2-ylurea]
20				O=C(NCc1ccnc(OC(F)F)c1)NC1CCC2(CCC2)C1 (centres unmarked) [Example 11, 1-[[2-(difluoromethoxy)pyridin-4-yl]methyl]-3-spiro[3.4]octan-7-ylurea]
